Results as given in patent US20240010961A1 (priority 2020, published 2024).
Read-outs that look alike come from different tables or passages of the source.

Legend:
SAOS-LM7 (osteosarcoma) = conditions: cited from earlier work
EW-7 (Ewing's sarcoma) = conditions: EW-7 in mice; cited from earlier work
hepatocytes = test: MOI validation: hepatocyte drug metabolism quantified in culture medium by liquid chromatography mass spectrometry; assay type: in vitro ADME; conditions: hepatocytes in well insert, medium sampled 0.5-72 h
Procedure: The MOI can be validated for all drugs of interest prior to applying it to sarcoma organoids. In one embodiment, the validation process includes printing 1,000-20,000 hepatocytes in the well insert and incubating in medium for 72 hours. In some embodiments, between about 5,000 and about 10,000 hepatocytes are provided in the well insert. At the 0.5, 1, 2, 4, 8, 12, 24, 48 and 72 h time-points, culture medium is collected from the well. Liquid chromatography mass spectrometry can be used to quantify the parent compound, its metabolites, and their concentrations. The goal is to identify conditions that recreate in vivo drug metabolism. […] To optimize these parameters, the size, shape, and cell density of the well insert can be changed if necessary. Hepatocyte viability and proliferation can be assessed for each time-point by Calcein AM and propidium iodide staining as well as an ATP assay. Optimal hepatocyte conditions and incubation periods for each drug can then be used in subsequent experiments.

Excerpt for tumor cells: Using the MOI device, tumor cells were co-cultured without, FIG. 12A, and with, FIG. 12B, liver organoid suspended on the MOI device.

Row | SMILES | sensitivity of cell line in mice (SAOS-LM7 (osteosarcoma)) | sensitivity of cell line in mice (EW-7 (Ewing's sarcoma)) | fraction converted into chloro-acetaldehyde (hepatocytes) | tumor cell viability (tumor cells; control, without liver organoid on the MOI device (FIG. 12A), logarithmically increasing concentration) | tumor cell viability (tumor cells; with MOI-device-supported liver organoid (FIG. 12B), higher CP concentrations)
1 | O=P1(NCCCl)OCCCN1CCCl (centres unmarked) [ifosfamide] | sensitive | sensitive | 25-50% |  | 
2 | O=P1(N(CCCl)CCCl)NCCCO1 (centres unmarked) [cyclophosphamide] |  |  |  | not significantly diminished | decreased
